ChEMBL document CHEMBL1136848, “Parallel medicinal chemistry approaches to selective HDAC1/HDAC2 inhibitor (SHI-1:2) optimization” (Bioorg Med Chem Lett, 2009)
Calls of active or inactive are those of the source. The rule behind the calls is not given here.

Target: Histone deacetylase 1 (Homo sapiens, UniProt Q13547)
Experiment: Inhibition of C-terminal FLAG-tagged human HDAC1 overexpressed in mammalian cells by plate reader method
Format: cell-based
Conditions: not given

Histone deacetylase 1, sequence (Q13547 whole entry): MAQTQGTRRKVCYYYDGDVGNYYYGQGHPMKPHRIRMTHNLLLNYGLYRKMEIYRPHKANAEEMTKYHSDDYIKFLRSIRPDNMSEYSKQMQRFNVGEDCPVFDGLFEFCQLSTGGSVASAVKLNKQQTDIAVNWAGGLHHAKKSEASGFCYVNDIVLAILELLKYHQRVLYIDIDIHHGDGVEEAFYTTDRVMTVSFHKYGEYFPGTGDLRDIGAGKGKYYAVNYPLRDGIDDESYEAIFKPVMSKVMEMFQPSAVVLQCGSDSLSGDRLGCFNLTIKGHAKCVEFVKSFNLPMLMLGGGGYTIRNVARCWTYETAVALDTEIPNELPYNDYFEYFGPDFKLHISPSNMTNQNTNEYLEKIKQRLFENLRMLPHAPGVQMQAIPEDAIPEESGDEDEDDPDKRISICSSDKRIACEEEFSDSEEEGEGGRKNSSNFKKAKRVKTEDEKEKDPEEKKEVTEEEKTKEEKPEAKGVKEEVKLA

Row | SMILES | IC50 [µM]
1 | O=C(NO)c1ccc(CNCCc2cccc(Cl)c2)cc1 | 1.01
2 | Nc1ccc(-c2ccccc2)cc1NC(=O)c1ccc(C(=O)N2CCC3(CCCN3)CC2)cc1 | 0.008
3 | Nc1ccc(-c2ccc(F)cc2)cc1NC(=O)c1ccc(CN2CCC3(CCNC3)CC2)cc1 | 0.013
4 | Nc1ccc(-c2ccccc2)cc1NC(=O)c1ccc(CN2CCC3(CCNC3)CC2)cc1 | 0.033
5 | Nc1ccc(-c2cccc(F)c2)cc1NC(=O)c1ccc(CN2CCC3(CCCN3)CC2)cc1 | 0.047
6 | Cc1ccc(O)c(NC(=O)c2ccc(CNc3ccncc3)cc2)c1 | 20.6
7 | Nc1ccc(-c2cccs2)cc1NC(=O)c1ccc(C(=O)N2CCC3(CCCN3)CC2)cc1 | 0.011
8 | COc1ccc(O)c(NC(=O)c2ccc(CNc3ccncc3)cc2)c1 | 7.96
9 | O=C(NO)c1ccc(CNCc2cccc(Cl)c2)cc1 | 0.348
10 | O=C(Nc1ccccc1O)c1ccc(CNc2ccncc2)cc1 | 1.57
11 | O=C(Nc1cc(Br)ccc1O)c1ccc(CNc2ccncc2)cc1 | 5.22

Continued, values first:

Row | IC50 [µM] | SMILES
12 | 0.008 | Nc1ccc(-c2ccsc2)cc1NC(=O)c1ccc(CN2CCC3(CCCN3)CC2)cc1
13 | 0.012 | Nc1ccc(-c2ccc(F)cc2)cc1NC(=O)c1ccc(C(=O)N2CCC3(CCCN3)CC2)cc1
14 | 2.01 | O=C(Nc1cc(F)ccc1O)c1ccc(CNc2ccncc2)cc1
15 | 0.013 | CC(NCc1ccc(C(=O)Nc2cc(-c3ccccc3)ccc2O)cc1)c1ccncc1 (stereo unspecified)
16 | 0.011 | Nc1ccc(-c2ccccc2F)cc1NC(=O)c1ccc(C(=O)N2CCC3(CCCN3)CC2)cc1
17 | 0.016 | Nc1ccc(-c2ccccc2F)cc1NC(=O)c1ccc(CN2CCC3(CCCN3)CC2)cc1
18 | 5.03 | O=C(Nc1cc(Cl)ccc1O)c1ccc(CNc2ccncc2)cc1
19 | 0.477 | COc1cccc(CNCc2ccc(C(=O)NO)cc2)c1
20 | 1.62 | O=C(NO)c1ccc(CNc2ccc(Cl)cc2)cc1
21 | 0.004 | Nc1ccc(-c2cccs2)cc1NC(=O)c1ccc(CN2CCC3(CCCN3)CC2)cc1
22 | 0.008 | Nc1ccc(-c2ccccc2)cc1NC(=O)c1ccc(CN2CCC3(CCCN3)CC2)cc1
23 | 24.1 | O=C(NO)c1ccc(CNC2CCCCC2)cc1

System: not listed separately
Experiment: Volume of distribution at steady state in dog at 0.5 mg/kg, iv
Format: ADME, organism-based, Canis lupus familiaris
Design: dose 0.5 mg/kg, route intravenous
Conditions: in vivo, read-out: Vdss

Row | SMILES | Vd [L/kg]
24 | Nc1ccc(-c2ccccc2)cc1NC(=O)c1ccc(C(=O)N2CCC3(CCCN3)CC2)cc1 | 5.1

System: not listed separately
Experiment: Bioavailability in rat plasma
Format: ADME, organism-based
Conditions: not given

Row | SMILES | bioavailability [%]
25 | Nc1ccc(-c2ccccc2)cc1NC(=O)c1ccc(CN2CCC3(CCCN3)CC2)cc1 | 70

System: not listed separately
Experiment: Volume of distribution in rat plasma
Format: ADME, organism-based
Conditions: not given

Row | SMILES | Vd [L/kg]
26 | Nc1ccc(-c2ccccc2)cc1NC(=O)c1ccc(CN2CCC3(CCCN3)CC2)cc1 | 22

System: not listed separately
Experiment: Increase in acetylated H2B/Total H2B ratio in acute in-vivo HCT116 xenograft model at 25 mg/kg, ip
Format: functional
Conditions: route intraperitoneal

Row | SMILES | fold change (FC)
27 | Nc1ccc(-c2ccccc2)cc1NC(=O)c1ccc(C(=O)N2CCC3(CCCN3)CC2)cc1 | 3

System: not listed separately
Experiment: Oral bioavailability in rat at 4 mg/kg
Format: ADME, organism-based
Conditions: in vivo

Row | SMILES | bioavailability [%]
28 | Nc1ccc(-c2ccccc2)cc1NC(=O)c1ccc(C(=O)N2CCC3(CCCN3)CC2)cc1 | 17

System: not listed separately
Experiment: Inhibition of calcium ion channel at < 10 uM
Conditions: not given

Row | SMILES | Activity
29 | Nc1ccc(-c2ccccc2)cc1NC(=O)c1ccc(C(=O)N2CCC3(CCCN3)CC2)cc1 | inactive

System: not listed separately
Experiment: Clearance in rat at 2 mg/kg, iv
Format: ADME, organism-based
Design: dose 2 mg/kg, route intravenous
Conditions: in vivo

Row | SMILES | clearance [mL/min/kg]
30 | Nc1ccc(-c2ccccc2)cc1NC(=O)c1ccc(C(=O)N2CCC3(CCCN3)CC2)cc1 | 26

System: HCT-116
Experiment: Antiproliferative activity against human HCT116 cells expressing HDAC after 72 hrs
Format: functional, cell-based
Conditions: HCT-116, 72 h

Row | SMILES | IC50 [µM]
31 | Nc1ccc(-c2ccccc2)cc1NC(=O)c1ccc(CNc2ccncc2)cc1 | 1.75
32 | Nc1ccc(-c2ccccc2)cc1NC(=O)c1ccc(C(=O)N2CCC3(CCCN3)CC2)cc1 | 0.103
33 | Nc1ccc(-c2ccc(F)cc2)cc1NC(=O)c1ccc(CN2CCC3(CCNC3)CC2)cc1 | 0.276
34 | Nc1ccc(-c2ccccc2)cc1NC(=O)c1ccc(CN2CCC3(CCNC3)CC2)cc1 | 0.309
35 | Nc1ccc(-c2cccc(F)c2)cc1NC(=O)c1ccc(CN2CCC3(CCCN3)CC2)cc1 | 1.07
36 | CN(Cc1ccc(C(=O)Nc2cc(-c3ccccc3)ccc2N)cc1)c1ccncc1 | 3.61
37 | Nc1ccc(-c2cccs2)cc1NC(=O)c1ccc(C(=O)N2CCC3(CCCN3)CC2)cc1 | 0.07

The remaining lines, values ahead:

Row | IC50 [µM] | SMILES
38 | 0.073 | Nc1ccc(-c2ccsc2)cc1NC(=O)c1ccc(CN2CCC3(CCCN3)CC2)cc1
39 | 0.138 | Nc1ccc(-c2ccc(F)cc2)cc1NC(=O)c1ccc(C(=O)N2CCC3(CCCN3)CC2)cc1
40 | 0.29 | Nc1ccc(-c2ccccc2F)cc1NC(=O)c1ccc(C(=O)N2CCC3(CCCN3)CC2)cc1
41 | 0.47 | Nc1ccc(-c2ccccc2F)cc1NC(=O)c1ccc(CN2CCC3(CCCN3)CC2)cc1
42 | 0.082 | Nc1ccc(-c2cccs2)cc1NC(=O)c1ccc(CN2CCC3(CCCN3)CC2)cc1
43 | 0.118 | Nc1ccc(-c2ccccc2)cc1NC(=O)c1ccc(CN2CCC3(CCCN3)CC2)cc1

Target: T1, Voltage-gated inwardly rectifying potassium channel KCNH2 (Homo sapiens, UniProt Q12809)
T1 sequence (Q12809 whole entry): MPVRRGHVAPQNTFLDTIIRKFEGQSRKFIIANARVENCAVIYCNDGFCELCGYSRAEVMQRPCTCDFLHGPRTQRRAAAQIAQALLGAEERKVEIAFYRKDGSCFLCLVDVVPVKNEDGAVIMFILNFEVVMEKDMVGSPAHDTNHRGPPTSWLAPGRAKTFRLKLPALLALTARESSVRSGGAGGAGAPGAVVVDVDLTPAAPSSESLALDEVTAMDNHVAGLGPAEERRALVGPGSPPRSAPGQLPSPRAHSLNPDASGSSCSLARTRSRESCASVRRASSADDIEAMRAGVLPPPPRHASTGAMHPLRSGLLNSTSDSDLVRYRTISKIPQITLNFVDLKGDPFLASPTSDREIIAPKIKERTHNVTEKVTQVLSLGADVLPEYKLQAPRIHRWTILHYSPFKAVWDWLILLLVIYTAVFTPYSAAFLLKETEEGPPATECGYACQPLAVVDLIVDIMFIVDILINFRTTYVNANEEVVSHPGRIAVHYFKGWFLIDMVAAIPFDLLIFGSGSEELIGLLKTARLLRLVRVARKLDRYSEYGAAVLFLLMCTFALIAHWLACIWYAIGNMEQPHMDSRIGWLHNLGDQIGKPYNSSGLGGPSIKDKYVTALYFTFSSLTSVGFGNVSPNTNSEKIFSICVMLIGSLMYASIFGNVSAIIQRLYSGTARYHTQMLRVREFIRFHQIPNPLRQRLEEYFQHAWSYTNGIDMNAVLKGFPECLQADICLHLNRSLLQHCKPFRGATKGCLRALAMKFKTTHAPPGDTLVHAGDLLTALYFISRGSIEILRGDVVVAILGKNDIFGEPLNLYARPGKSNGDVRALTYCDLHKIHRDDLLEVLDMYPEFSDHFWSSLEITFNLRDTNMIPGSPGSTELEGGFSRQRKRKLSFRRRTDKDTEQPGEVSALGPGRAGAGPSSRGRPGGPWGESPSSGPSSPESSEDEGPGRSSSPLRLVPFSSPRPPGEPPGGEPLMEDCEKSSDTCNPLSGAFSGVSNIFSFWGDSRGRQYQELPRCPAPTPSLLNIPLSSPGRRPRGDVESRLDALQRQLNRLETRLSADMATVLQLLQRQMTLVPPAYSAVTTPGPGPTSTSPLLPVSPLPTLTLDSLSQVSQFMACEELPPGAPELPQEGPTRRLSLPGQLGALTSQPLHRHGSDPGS
Experiment: Inhibition of human ERG at < 10 uM
Conditions: not given

Row | SMILES | Activity
44 | Nc1ccc(-c2ccccc2)cc1NC(=O)c1ccc(C(=O)N2CCC3(CCCN3)CC2)cc1 | Not Active

System: not listed separately
Experiment: Clearance in rat plasma
Format: ADME, organism-based
Conditions: not given

Row | SMILES | clearance [mL/min/kg]
45 | Nc1ccc(-c2ccccc2)cc1NC(=O)c1ccc(CN2CCC3(CCCN3)CC2)cc1 | 45

System: not listed separately
Experiment: Volume of distribution at steady state in rat at 2 mg/kg, iv
Format: ADME, organism-based
Design: dose 2 mg/kg, route intravenous
Conditions: in vivo, read-out: Vdss

Row | SMILES | Vd [L/kg]
46 | Nc1ccc(-c2ccccc2)cc1NC(=O)c1ccc(C(=O)N2CCC3(CCCN3)CC2)cc1 | 14

System: not listed separately
Experiment: Half life in rat plasma
Format: ADME, organism-based
Conditions: not given

Row | SMILES | half-life [h]
47 | Nc1ccc(-c2ccccc2)cc1NC(=O)c1ccc(CN2CCC3(CCCN3)CC2)cc1 | 8

System: not listed separately
Experiment: Half life in dog at 0.5 mg/kg, iv
Format: ADME, organism-based, Canis lupus familiaris
Design: dose 0.5 mg/kg, route intravenous
Conditions: in vivo

Row | SMILES | half-life [h]
48 | Nc1ccc(-c2ccccc2)cc1NC(=O)c1ccc(C(=O)N2CCC3(CCCN3)CC2)cc1 | 8.5

Target: Histone deacetylase 3 (Homo sapiens, UniProt O15379)
Sequence (O15379 whole entry): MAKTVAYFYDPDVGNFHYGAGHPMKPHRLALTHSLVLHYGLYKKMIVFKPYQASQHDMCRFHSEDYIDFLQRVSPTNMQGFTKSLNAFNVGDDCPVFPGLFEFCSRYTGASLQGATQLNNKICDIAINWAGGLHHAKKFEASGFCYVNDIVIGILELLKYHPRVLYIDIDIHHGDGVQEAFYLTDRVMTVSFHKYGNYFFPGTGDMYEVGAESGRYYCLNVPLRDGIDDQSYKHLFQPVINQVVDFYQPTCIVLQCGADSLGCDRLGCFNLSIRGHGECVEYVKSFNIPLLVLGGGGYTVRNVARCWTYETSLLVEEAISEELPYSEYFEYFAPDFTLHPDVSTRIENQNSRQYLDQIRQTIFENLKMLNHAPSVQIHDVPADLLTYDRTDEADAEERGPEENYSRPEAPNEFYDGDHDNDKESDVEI
Experiment: Inhibition of C-terminal FLAG-tagged human HDAC3 overexpressed in mammalian cells by plate reader method
Format: cell-based
Conditions: not given

Row | SMILES | IC50 [µM]
49 | Nc1ccc(-c2ccccc2)cc1NC(=O)c1ccc(CNc2ccncc2)cc1 | 6.39
50 | Nc1ccc(-c2ccccc2)cc1NC(=O)c1ccc(C(=O)N2CCC3(CCCN3)CC2)cc1 | 5.1
51 | Nc1ccc(-c2ccc(F)cc2)cc1NC(=O)c1ccc(CN2CCC3(CCNC3)CC2)cc1 | 4.8
52 | Nc1ccc(-c2ccccc2)cc1NC(=O)c1ccc(CN2CCC3(CCNC3)CC2)cc1 | 6.93
53 | Nc1ccc(-c2cccc(F)c2)cc1NC(=O)c1ccc(CN2CCC3(CCCN3)CC2)cc1 | 5.73
54 | CN(Cc1ccc(C(=O)Nc2cc(-c3ccccc3)ccc2N)cc1)c1ccncc1 | 5.38
55 | Nc1ccc(-c2cccs2)cc1NC(=O)c1ccc(C(=O)N2CCC3(CCCN3)CC2)cc1 | 4.33

Second part, the compound after the results:

Row | IC50 [µM] | SMILES
56 | 8.71 | Nc1ccc(-c2ccsc2)cc1NC(=O)c1ccc(CN2CCC3(CCCN3)CC2)cc1
57 | 3.2 | Nc1ccc(-c2ccc(F)cc2)cc1NC(=O)c1ccc(C(=O)N2CCC3(CCCN3)CC2)cc1
58 | > 50 | Nc1ccc(-c2ccccc2F)cc1NC(=O)c1ccc(C(=O)N2CCC3(CCCN3)CC2)cc1
59 | 17.4 | Nc1ccc(-c2ccccc2F)cc1NC(=O)c1ccc(CN2CCC3(CCCN3)CC2)cc1
60 | 9.62 | Nc1ccc(-c2cccs2)cc1NC(=O)c1ccc(CN2CCC3(CCCN3)CC2)cc1
61 | 16.5 | Nc1ccc(-c2ccccc2)cc1NC(=O)c1ccc(CN2CCC3(CCCN3)CC2)cc1

System: HCT-116
Experiment: Antiproliferative activity against human HCT116 cells expressing HDAC after 96 hrs
Format: functional, cell-based
Conditions: not given

Row | SMILES | Activity
62 | CC(C)CNCc1ccc(C(=O)Nc2cc(-c3ccccc3)ccc2O)cc1 | inactive
63 | O=C(Nc1cc(F)ccc1O)c1ccc(CNc2ccncc2)cc1 | inactive
64 | O=C(Nc1cc(Cl)ccc1O)c1ccc(CNc2ccncc2)cc1 | inactive
65 | Cc1ccc(O)c(NC(=O)c2ccc(CNc3ccncc3)cc2)c1 | inactive
66 | COc1ccc(O)c(NC(=O)c2ccc(CNc3ccncc3)cc2)c1 | inactive
67 | O=C(Nc1ccccc1O)c1ccc(CNc2ccncc2)cc1 | inactive
68 | O=C(Nc1cc(Br)ccc1O)c1ccc(CNc2ccncc2)cc1 | inactive
69 | O=C(Nc1cc(-c2ccccc2)ccc1O)c1ccc(CNCCc2ccccc2)cc1 | inactive

Same assay, conditions: HCT-116, 96 h

Row | SMILES | IC50 [µM]
70 | CC(NCc1ccc(C(=O)Nc2cc(-c3ccccc3)ccc2O)cc1)c1ccncc1 (stereo unspecified) | 1.82
71 | O=C(Nc1cc(-c2ccccc2)ccc1O)c1ccc(CNc2ccncc2)cc1 | 1.74
72 | O=C(Nc1cc(-c2ccccc2)ccc1O)c1ccc(CNCc2cccnc2)cc1 | 1.36

Target: T1, Voltage-gated inwardly rectifying potassium channel KCNH2
Conditions: not given

Row | SMILES | IC50 [µM]
73 | Nc1ccc(-c2ccccc2)cc1NC(=O)c1ccc(C(=O)N2CCC3(CCCN3)CC2)cc1 | 12.4
74 | Nc1ccc(-c2ccc(F)cc2)cc1NC(=O)c1ccc(CN2CCC3(CCNC3)CC2)cc1 | 0.237
75 | Nc1ccc(-c2ccccc2F)cc1NC(=O)c1ccc(CN2CCC3(CCCN3)CC2)cc1 | 0.183
76 | Nc1ccc(-c2cccs2)cc1NC(=O)c1ccc(C(=O)N2CCC3(CCCN3)CC2)cc1 | 25.1
77 | Nc1ccc(-c2cccs2)cc1NC(=O)c1ccc(CN2CCC3(CCCN3)CC2)cc1 | 1.6

System: not listed separately
Experiment: Oral bioavailability in dog at 1 mg/kg, po
Format: ADME, organism-based, Canis lupus familiaris
Conditions: in vivo

Row | SMILES | bioavailability [%]
78 | Nc1ccc(-c2ccccc2)cc1NC(=O)c1ccc(C(=O)N2CCC3(CCCN3)CC2)cc1 | 4

System: not listed separately
Experiment: Clearance in dog at 0.5 mg/kg, iv
Format: ADME, organism-based, Canis lupus familiaris
Design: dose 0.5 mg/kg, route intravenous
Conditions: in vivo

Row | SMILES | clearance [mL/min/kg]
79 | Nc1ccc(-c2ccccc2)cc1NC(=O)c1ccc(C(=O)N2CCC3(CCCN3)CC2)cc1 | 8.2

System: not listed separately
Experiment: Half life in rat at 2 mg/kg, iv
Format: ADME, organism-based
Design: dose 2 mg/kg, route intravenous
Conditions: in vivo

Row | SMILES | half-life [h]
80 | Nc1ccc(-c2ccccc2)cc1NC(=O)c1ccc(C(=O)N2CCC3(CCCN3)CC2)cc1 | 7

Species: Homo sapiens
Experiment: Selectivity ratio of IC50 for C-terminal FLAG-tagged human HDAC3 to IC50 C-terminal FLAG-tagged human HDAC1
Conditions: not given

Row | SMILES | Ratio IC50
81 | Nc1ccc(-c2ccccc2)cc1NC(=O)c1ccc(CN2CCC3(CCCN3)CC2)cc1 | 2000
